From PubChem BioAssay (NCI)
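Step 1: Grow cells in 96-well plates. Step 2: Expose to compound for 48 hours at 5 concentrations. Step 3: Interpolate endpoints linearly; if unreached, use highest concentration. Abbreviation: GI50, concentration required for 50% inhibition of growth. TGI is the concentration that stops growth completely.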 Where a SMILES comes first, the peptide text is derived from it. The star is where a group is joined. Boc = CC(C)(C)OC(=O)*

How the values were obtained:
Assay in all cases: NCI tumour cell line growth inhibition, 48 h
[1] = test system: U251 CNS
[2] = test system: NCI-H23 lung
[3] = test system: CAKI-1 renal
[4] = test system: A498 renal
[5] = test system: OVCAR-3 ovarian
[6] = test system: NCI-H460 lung
[7] = test system: RXF 393 renal
[8] = test system: HOP-62 NSCLC
[9] = test system: UACC-62 melanoma

## Oc1cccc2c(Br)ccnc12
[1]
  TGI: 20.4 µM
[2]
  TGI: 17.1 µM
[3]
  TGI: > 100 µM
[4]
  TGI: 39.1 µM
[5]
  TGI: 7.81 µM
[6]
  TGI: 42 µM
[7]
  TGI: 32.4 µM
[8]
  TGI: > 69 µM
[9]
  TGI: 11.1 µM

## Cc1c(OCc2cccc3ccccc23)ccc2c(=O)cc(SCCN3CCOCC3)oc12
[1]
  TGI: > 100 µM
[2]
  TGI: > 100 µM
[3]
  TGI: > 100 µM
[4]
  TGI: > 100 µM
[5]
  TGI: > 100 µM
[6]
  TGI: > 100 µM
[7]
  TGI: > 100 µM
[8]
  TGI: > 100 µM
[9]
  TGI: > 100 µM

## CC(c1ccccc1)n1cncc1C(=O)NN1CCN(C)CC1 (configuration not stated)
[1]
  TGI: > 10 µM
[2]
  TGI: > 10 µM
[3]
  TGI: > 10 µM
[4]
  TGI: > 10 µM
[5]
  TGI: > 10 µM
[6]
  TGI: > 10 µM
[7]
  TGI: > 10 µM
[8]
  TGI: > 10 µM
[9]
  TGI: > 10 µM

## CC(C)[C@H](C)/C=C/[C@@H](C)C1CC[C@H]2[C@@]34C=C[C@]5(C[C@@H](O)CC[C@]5(C)[C@H]3CC[C@]12C)OO4 (some centres not stated)
[1]
  TGI: 58.5 µM
[2]
  TGI: 92.5 µM
[3]
  TGI: 55.3 µM
[4]
  TGI: 57.3 µM
[5]
  TGI: > 100 µM
[6]
  TGI: > 100 µM
[7]
  TGI: > 100 µM
[8]
  TGI: > 100 µM
[9]
  TGI: 43.6 µM

## Cc1cn(C2CC(COCc3ccccc3)N(CCO[Si](C)(C)C(C)(C)C)O2)c(=O)[nH]c1=O (configuration not stated)
[1]
  TGI: 62.5 µM
[2]
  TGI: 30.7 µM
[3]
  TGI: 32.7 µM
[4]
  TGI: 36.8 µM
[5]
  TGI: 28.4 µM
[6]
  TGI: 35.2 µM
[7]
  TGI: 29 µM
[8]
  TGI: 31 µM
[9]
  TGI: 24.3 µM

## COC(=O)C(Cc1c[nH]c2ccccc12)NC(=O)C(Cc1c[nH]c2ccccc12)NC(=O)C(Cc1c[nH]c2ccccc12)NC(=O)C(Cc1c[nH]c2ccccc12)NC(=O)C(Cc1c[nH]c2ccccc12)NC(=O)C(Cc1c[nH]c2ccccc12)NC(=O)C(Cc1c[nH]c2ccccc12)NC(=O)OC(C)(C)C (configuration not stated) (Boc-WWWWWWW-OMe; configuration not given here)
[1]
  TGI: > 100 µM
[2]
  TGI: > 100 µM
[3]
  TGI: > 100 µM
[5]
  TGI: > 100 µM
[6]
  TGI: > 100 µM
[8]
  TGI: > 100 µM
[9]
  TGI: > 100 µM

## COC(=O)CCC(=O)NC1=C(Nc2ccccc2)C(=O)c2ccccc2C1=O
[1]
  TGI: 24.2 µM
[2]
  TGI: 12.9 µM
[3]
  TGI: 27.5 µM
[4]
  TGI: 28.6 µM
[5]
  TGI: 10.4 µM
[6]
  TGI: 31.9 µM
[7]
  TGI: 21.4 µM
[8]
  TGI: 32.1 µM
[9]
  TGI: 7.55 µM

## O=C1N2CCC[C@H]2CS1(=O)=O
[1]
  TGI: 30 µM
[2]
  TGI: 34 µM
[3]
  TGI: 18.2 µM
[4]
  TGI: 44.5 µM
[5]
  TGI: 31.4 µM
[6]
  TGI: 88.1 µM
[7]
  TGI: 21.7 µM
[8]
  TGI: 32 µM
[9]
  TGI: 30 µM

## O=[N+]([O-])c1ccc(N2N=C(c3c(O)ccc4ccccc34)CC2c2ccc(Cl)cc2)c([N+](=O)[O-])c1 (configuration not stated)
[1]
  TGI: > 100 µM
[2]
  TGI: > 100 µM
[3]
  TGI: 93.2 µM
[4]
  TGI: 63.9 µM
[5]
  TGI: > 100 µM
[6]
  TGI: > 100 µM
[7]
  TGI: 73.5 µM
[8]
  TGI: 61.6 µM
[9]
  TGI: 60.4 µM

## O=C(O)Cn1c2c(c3c1-c1ccccc1C3=O)C(=O)CCC2
[1]
  GI50: > 100 µM
  TGI: > 100 µM
[2]
  GI50: > 100 µM
  TGI: > 100 µM
[3]
  GI50: > 100 µM
  TGI: > 100 µM
[4]
  GI50: > 100 µM
  TGI: > 100 µM
[5]
  GI50: > 100 µM
  TGI: > 100 µM
[6]
  GI50: > 100 µM
  TGI: > 100 µM
[7]
  GI50: > 100 µM
  TGI: > 100 µM
[8]
  GI50: > 100 µM
  TGI: > 100 µM

## O=c1cc(N2CCOCC2)n2c(ccc3ccccc32)n1
[1]
  TGI: > 100 µM
[2]
  TGI: > 100 µM
[3]
  TGI: > 100 µM
[4]
  TGI: > 100 µM
[5]
  TGI: > 100 µM
[7]
  TGI: > 100 µM
[8]
  TGI: > 100 µM
[9]
  TGI: > 100 µM

## CC(=O)CC(=O)N1CCSC1=S
[1]
  TGI: > 10 µM
[2]
  TGI: > 10 µM
[4]
  TGI: > 10 µM
[5]
  TGI: > 10 µM
[6]
  TGI: > 10 µM
[7]
  TGI: > 10 µM
[8]
  TGI: > 10 µM
[9]
  TGI: > 10 µM

## Cc1cc(S(=O)(=O)Nc2nc3cscc3c(=O)n2N)c(S)cc1Cl
[1]
  TGI: > 100 µM
[2]
  TGI: > 100 µM
[3]
  TGI: > 100 µM
[5]
  TGI: > 100 µM
[6]
  TGI: > 100 µM
[8]
  TGI: > 100 µM
[9]
  TGI: > 100 µM

## C=C(CN(CC)CC)C1(c2ccccc2)CC2(CCCC2)C(=O)O1 (configuration not stated)
[1]
  TGI: > 100 µM
[2]
  TGI: 98.9 µM
[3]
  TGI: > 100 µM
[4]
  TGI: > 100 µM
[5]
  TGI: > 100 µM
[6]
  TGI: > 100 µM
[7]
  TGI: > 100 µM
[8]
  TGI: > 100 µM
[9]
  TGI: > 100 µM

## Cc1ccc(N=C/C=C(\Nc2ccc(C)cc2)c2ccc3ccccc3c2)cc1
[1]
  TGI: 7.23 µM
[2]
  TGI: 3.9 µM
[3]
  TGI: 12.7 µM
[4]
  TGI: 24.2 µM
[5]
  TGI: 11.2 µM
[6]
  TGI: 13.8 µM
[7]
  TGI: 8.52 µM
[8]
  TGI: 5.4 µM
[9]
  TGI: 1.3 µM

## CC(C)(C)OC(=O)C(C#N)C(=O)c1ccc(C(=O)O)[nH]1 (configuration not stated)
[1]
  TGI: > 100 µM
[2]
  TGI: > 100 µM
[3]
  TGI: 41.5 µM
[4]
  TGI: 77.2 µM
[5]
  TGI: > 100 µM
[6]
  TGI: > 100 µM
[9]
  TGI: 45.7 µM

## O=C1Nc2cccc(Cl)c2/C1=C\c1c(-c2ccccc2)nc2n1CCS2
[1]
  TGI: 47.4 µM
[2]
  TGI: 88.7 µM
[3]
  TGI: 73.8 µM
[4]
  TGI: 39.4 µM
[5]
  TGI: 43.5 µM
[6]
  TGI: 40.7 µM
[7]
  TGI: 42.5 µM
[8]
  TGI: 66.1 µM
[9]
  TGI: 45.6 µM

## COc1cccc(NC(=O)CC(=O)n2nc(-c3ccccc3)c(N=Nc3ccc(Cl)cc3)c2-c2ccccc2)c1
[1]
  TGI: 77.9 µM
[2]
  TGI: > 78.1 µM
[3]
  TGI: > 100 µM
[4]
  TGI: > 83.1 µM
[5]
  TGI: 99.1 µM
[6]
  TGI: > 92.5 µM
[7]
  TGI: 75.9 µM
[8]
  TGI: 90.9 µM
[9]
  TGI: > 72.7 µM

## c1ccc2c(Nc3ncco3)cccc2c1
[1]
  TGI: > 10 µM
[2]
  TGI: > 10 µM
[3]
  TGI: > 10 µM
[4]
  TGI: > 10 µM
[5]
  TGI: > 10 µM
[6]
  TGI: > 10 µM
[8]
  TGI: > 10 µM
[9]
  TGI: > 10 µM

## S=C1C(=Nc2ccccc2)N(c2ccccc2)/C(=N\c2cccc[n+]2Cc2ccccc2)N1c1ccccc1
[2]
  TGI: 35.4 µM
[3]
  TGI: 55.7 µM
[5]
  TGI: 54.3 µM
[6]
  TGI: 50 µM
[7]
  TGI: 27.3 µM
[8]
  TGI: 29.8 µM
[9]
  TGI: 25 µM

## Cn1c2ccc(Cl)cc2c2ccc3c(c21)C(=O)C=CC3=O
[1]
  TGI: > 10 µM
[2]
  TGI: > 10 µM
[3]
  TGI: > 10 µM
[4]
  TGI: > 10 µM
[5]
  TGI: > 10 µM
[6]
  TGI: > 10 µM
[8]
  TGI: > 10 µM
[9]
  TGI: > 10 µM

## Oc1ccc(Cl)cc1-c1cc(-c2ccccc2)nc(=S)[nH]1
[1]
  TGI: 39.8 µM
[2]
  TGI: > 100 µM
[3]
  TGI: > 100 µM
[4]
  TGI: > 100 µM
[5]
  TGI: > 100 µM
[6]
  TGI: > 100 µM
[7]
  TGI: > 100 µM
[8]
  TGI: 46.9 µM
